The values that follow come from publication PMC7998250, “Temperate Zone Plant Natural Products—A Novel Resource for Activity against Tropical Parasitic Diseases” (Pharmaceuticals, 2021).

Assay [1] relates to 700022-resistant line of L. mexicana (r22) axenic amastigotes. The assay can be described thus: EC50 in 700022-resistant L. mexicana (r22) axenic amastigotes. The format is cell-based, Leishmania mexicana. The settings on record: for EC50: Leishmania mexicana, read-out: r22 28 weeks EC50, r22 after 28 weeks of 700022 selection pressure; for r22 28 weeks RI (resistance index, EC50 in r22/EC50 in WT): 28 weeks of 700022 selection pressure. The procedure:
A 700022-resistant line of L. mexicana (r22) was generated using a previously reported method (Figure S3). […] All leishmanicidal sterols identified were assayed against r22 after 8 weeks of 700022 pressure and cross-resistance was found against all four compounds, each with a similar resistance index of between 4–5 (Figure 6c). Following 28 weeks of selection, the morphology of the r22 promastigotes was compared to that of WT (Figure 6d). […] The body area of both promastigotes and amastigotes was also assessed, noting a small (c 20%) decrease in the body area of r22 parasites compared to WT strains (Figure S3).
Figure 6 Comparison between wildtype and 700022-resistant (r22) L. mexicana cell lines. Log concentration versus normalised (compared to untreated control) growth curves for wildtype (WT) and corresponding 700022-selected (r22) L. mexicana (a) promastigotes and (b) axenic amastigotes. Error bars represent upper and lower limits of the StDev (n = 9). […] The resistance index (EC50 in r22/EC50 in WT) are shown for each compound. (d) Scanning electron micrographs of WT and r22 promastigotes illustrating the shortened flagellum in r22 parasites. (e) Analysis of flagellum length in WT and r22 promastigotes (n = 287 of each strain) reported using a box and whisker plot (boxes represents the 25–75th percent distribution with the mean as a horizontal line, whiskers represent the distribution of all values) with a statistically significant difference (Mann–Whitney U test, p-value < 2.2 × 10^−16). […] Error bars represent upper and lower limits of the StDev (n = 9). […] The resistance index (EC50 in r22/EC50 in WT) are shown for each compound. TEXT PRINTED IN THE PICTURE: (c) 700022: 4.1 | (c) 700107: 4.1 | (c) 700136: 5.3 | (c) 700240: 5.3 | (f) 700022: 42.1 | (f) Milt: 17.9 | (f) Pent: 0.75 | (f) AmpB: 1.22 DOUBTS OF THE COPYIST ABOUT THIS PICTURE: Panels c and f: the numbers printed above the bar pairs have no measure or unit printed with them in the picture.
L. mexicana parasites were grown in increasing concentrations of 700022 in a stepwise manner, as previously described. […] A dose response assay of the newly selected promastigotes was completed as stated above, with the exception of the seeding density of 1 × 10^5 cells/mL. At this point, the drug pressure was increased to the concentration of the new EC50 value.

For assay [2], the system named is L. mexicana axenic amastigotes. The assay can be described thus: Initial screen, L. mexicana axenic amastigotes, Alamar Blue. In kind it is cell-based, Leishmania mexicana. Particulars: for decrease of L. mexicana survival: 2 μM, 72 h; for activity at 2 µM: Leishmania mexicana. The procedure:
(§1) 634 compounds from the PhytoQuest Phytopure temperate plant natural product library were screened for growth inhibitory activity against L. mexicana axenic amastigotes, T. brucei bloodstream form, intraerythrocytic asexual P. falciparum (at 2 μM) and T. evansi bloodstream form parasites (at 1 μM). […] Our initial hits were defined as reducing growth of the parasite by ≥50%. […]
(§2) The PhytoQuest Phytopure library is a commercially available collection of purified compounds isolated predominantly from temperate zone plants, with structures confirmed by NMR and mass spectrometry. The library was provided as 634 non-polar compounds (1 mg/mL in DMSO). Initial screening was performed in a 96-well plate with 200 μL of parasite culture. The initial screen used each compound at a final concentration of 2 μM for L. mexicana axenic amastigotes, T. brucei and P. falciparum, and at 1 μM for T. evansi. L. mexicana axenic amastigotes were plated at 1 × 10^6 cells/mL, incubated for 72 h, and the Alamar Blue assay was used to assess parasite growth. Each compound was tested in triplicate, with two biological replicates (n = 6). T. brucei and T. evansi were plated at 1×10^5 cells/mL for 48 h, and the Alamar Blue assay was used to assess parasite growth. Each compound was tested in triplicate with two biological replicates (n = 6). Intraerythrocytic P. falciparum in the trophozoite stage were seeded at 0.5% parasitaemia and 2% haematocrit for 48 h, and the Malaria SYBR-Green I fluorescence assay was used to assess parasite growth. Each compound was tested in duplicate with two biological replicates (n = 4). Negative controls comprised an equivalent volume of DMSO (equivalent of 1% v/v) to normalise the growth data. Data points >100% growth and <0% growth were tabulated as 100% and 0%, respectively. Some compounds were not tested in all parasite lines as there was insufficient material remaining.

Assay [3] has as its system T. brucei bloodstream form. The assay can be described thus: Initial screen, T. brucei bloodstream form, Alamar Blue. In kind it is cell-based, Trypanosoma brucei brucei. Particulars: initial screen; for activity at 2 µM: Trypanosoma brucei. The procedure: (§3) 634 compounds from the PhytoQuest Phytopure temperate plant natural product library were screened for growth inhibitory activity against L. mexicana axenic amastigotes, T. brucei bloodstream form, intraerythrocytic asexual P. falciparum (at 2 μM) and T. evansi bloodstream form parasites (at 1 μM). […] Our initial hits were defined as reducing growth of the parasite by ≥50%.
(§4) L. mexicana strain MNYC/BZ/62/M379 and L. donovani strain LdBOB (a clonal line from strain MHOM/SD/62/1S-CL2) were maintained in vitro in the procyclic promastigote stage. Parasites were cultivated at 26 °C in Schneider’s medium (Gibco) pH 7.0 containing 10% FBS, 100 U/mL penicillin (Lonza) and 100 μg/mL streptomycin (Lonza) as previously described. Differentiation into axenic amastigotes was performed as described previously. Briefly, axenic amastigotes were cultivated at 32 °C in Schneider’s medium pH 5.5 containing 10% FBS, 100 U/mL penicillin (Lonza) and 100 μg/mL streptomycin (Lonza). Bloodstream form T. brucei brucei strain Lister 427 and T. evansi strain Antat 3/3 [59] were maintained in vitro at 37 °C with 5% (v/v) CO2 in HMI-11 medium supplemented with 10% FBS, as described elsewhere. Intraerythrocytic cultures of P. falciparum Dd2^Luc strain [62] were maintained at 37 °C in a 1% O2:3% CO2:96% N2 atmosphere in RPMI-1640 containing 37.5 mM HEPES, 5 mM NaOH, 10 mM D-glucose, 2 mM L-glutamine, 100 μM hypoxanthine, […] gentamicin sulfate, 5% human serum and 5% albumax-II and 2% haematocrit erythrocytes. When required, cultures were synchronised to ring stages using the sorbitol lysis method. Preliminary cytotoxicity screening was assessed using HepG2 cells. These cells were maintained in vitro at 37 °C with 5% (v/v) CO2 in DMEM (Sigma) pH 7 supplemented with 10% FBS, 100 U/mL penicillin (Lonza) and 100 μg/mL streptomycin (Lonza), as previously described. The human monocyte cell line THP-1 [68] was maintained in vitro by culturing at 37 °C with 5% (v/v) CO2 in complete RPMI medium (Dutch modified RPMI-1640 (Gibco) containing 10% FBS and 2 mM L-glutamine (Gibco)). Differentiation of THP-1 cells into macrophages was performed by seeding 2.5 × 10^5 cells/mL in complete RPMI media, supplemented with 20 ng/mL phorbol 12-myristate 13-acetate (PMA), followed by incubation at 37 °C with 5% (v/v) CO2 for 24 h.
as §2, with “The” for “The PhytoQuest Phytopure library is a commercially available collection of purified compounds isolated predominantly from temperate zone plants, with structures confirmed by NMR and mass spectrometry. The”
(Alamar Blue is a resazurin reagent that responds to reducing activity.)

The subject of assay [4] is T. evansi bloodstream form. The assay can be described thus: Initial screen, T. evansi bloodstream form, Alamar Blue. Particulars: Trypanosoma evansi; for activity at 1 µM: initial screen; for inhibition of growth at 1 µM: read-out: initial hit T.e. The format is cell-based, Trypanosoma evansi. The procedure: as §3, §4
as §2, with “The” for “The PhytoQuest Phytopure library is a commercially available collection of purified compounds isolated predominantly from temperate zone plants, with structures confirmed by NMR and mass spectrometry. The”

In assay [5] the test system is P. falciparum Dd2Luc intraerythrocytic trophozoites. The assay can be described thus: Initial screen, intraerythrocytic P. falciparum, Malaria SYBR-Green I fluorescence assay. Particulars: for activity at 2 µM: Plasmodium falciparum. In kind it is cell-based, Plasmodium falciparum. The procedure:
as §1, §2

The test system of a further assay is T. evansi. As to the kind of experiment: Concentration-response EC50, T. evansi. In kind it is cell-based. Particulars: Trypanosoma evansi, 48 h, read-out: T. evansi EC50.
Assay [6] relates to L. mexicana axenic amastigotes. As to the kind of experiment: Concentration-response EC50, L. mexicana axenic amastigotes (WT). In kind it is cell-based, Leishmania mexicana. The settings on record: Leishmania mexicana.
Setting [7] is: read-out: % growth L. mexicana, mean % growth compared to a normalised control with same concentration of DMSO solvent, initial screen.
[8] abbreviates: mean % growth compared to a normalised control with same concentration of DMSO solvent, read-out: % growth T. evansi.
Where [9] appears, read: 48 h, read-out: %growth P. falciparum, mean % growth compared to a normalised control with same concentration of DMSO solvent, initial screen.
Where [10] appears, read: mean % growth compared to a normalised control with same concentration of DMSO solvent, initial screen.

Like-named read-outs stand apart in the source and are kept apart here.

For the compound `C[C@@H]1[C@H](O)[C@@H](C)/C=C/C=C/C=C/C=C/C=C/C=C/C=C/[C@H](O[C@@H]2O[C@H](C)[C@@H](O)[C@H](N)[C@@H]2O)C[C@@H]2O[C@](O)(C[C@@H](O)C[C@@H](O)[C@H](O)CC[C@@H](O)C[C@@H](O)CC(=O)O[C@H]1C)C[C@H](O)[C@H]2C(=O)O` [Amphotericin B, reference compound], the EC50 in assay [1] was determined as 0.28 µM.
Consider `CC1=CC(CC(C)C2CCC3(C)C4=CCC5C(C)(C)C(=O)CCC5(C)C4CCC23C)OC1=O` (stereo not shown) [Compound 700016], for which the “decrease of L. mexicana survival” value in assay [2] is “more than 50%”. For the same compound, the activity at 2 µM was 47.1% in assay [2] (setting [7]); 75.7% in assay [3] (mean % growth compared to a normalised control with same concentration of DMSO solvent, read-out: % growth T. b. brucei); 104% in assay [5] (setting [9]). Also, the activity at 1 µM in assay [4] (setting [8]) stood at 40.5%. In addition, in assay [4] (1 μM, x = initial hit), the inhibition of growth at 1 µM is > 50%. The EC50 in the assay with T. evansi (bloodstream form) is > 3 µM.
Consider `CC(=O)OC1C(O)C(C)OC(OC2C(OC(=O)C3CC[C@@H]4[C@H](C3)OC3(CC(OC(=O)/C=C/c5ccccc5)[C@@H](C)CO3)C43CO3)OC(CO)C(O)C2OC(C)=O)C1O` (stereo partly shown) [Compound 700063], for which the “decrease of L. mexicana survival” value in assay [2] is ~70%. Also, the “% growth L. mexicana” value in assay [2] (setting [10]) is reported as 70.5%. The “% growth T. b. brucei” value in assay [3] (mean % growth compared to a normalised control with same concentration of DMSO solvent) is 95.6%. Also, the activity at 1 µM in assay [4] (read-out: % growth T. evansi, mean % growth compared to a normalised control with same concentration of DMSO solvent) was 44.5%. In assay [4], the inhibition of growth at 1 µM was > 50%. In addition, in assay [5] (2 μM), the “activity against P. falciparum in screen” value is given as “neither 700014 or 700063 showed activity against P. falciparum”. The “%growth P. falciparum” value in assay [5] (setting [10]) is reported as 104.8%. For the same compound, in the assay on T. evansi, the EC50 is > 10 µM.
As for `CC(C)=CCc1c(O)cc2oc(-c3ccc(O)c(O)c3)c(O)c(=O)c2c1O` [Compound 700326], the activity at 2 µM stood at 27% in assay [2] (setting [7]) and 63.1% in assay [5] (setting [9]). In assay [4] (setting [8]), the activity at 1 µM worked out at 34.7%. Also, the inhibition of growth at 1 µM in assay [4] (1 μM, x = initial hit) was > 50%. Besides, the EC50 with T. evansi (bloodstream form) came out at 1.8 µM.
In the case of `CC(C)c1cc(CCC2C(=O)CCCC2(C)C)c(O)cc1O` (stereo not shown) [Compound 700454], the activity at 2 µM in assay [2] (read-out: mean % growth, L. mexicana, initial screen, compared to a normalised control with same concentration of DMSO solvent) worked out at 47.9%; in assay [3] (compared to a normalised control with same concentration of DMSO solvent, read-out: mean % growth, T. b. brucei) it was 77.3%; in assay [5] (48 h, read-out: mean % growth, P. falciparum, initial screen, compared to a normalised control with same concentration of DMSO solvent), 95.4%. The activity at 1 µM in assay [4] (compared to a normalised control with same concentration of DMSO solvent, read-out: mean % growth, T. evansi) came out at 43.7%. The inhibition of growth at 1 µM in assay [4] (1 μM, x = initial hit) was > 50%. For the same compound, in assay [5] (2 μM, 48 h, Dd2Luc), the “reduction of P. falciparum growth” value worked out at 5%. The EC50 in the assay with T. evansi (bloodstream form) is 3.3 µM.
`CCCCCCCCCCCCCCCCOP(=O)([O-])OCC[N+](C)(C)C` [Miltefosine, reference compound]: in assay [6] (read-out: WT EC50, L. mexicana WT axenic amastigotes), the EC50 amounted to 1.1 µM. Further, in assay [1], the “r22 28 weeks RI (resistance index, EC50 in r22/EC50 in WT)” value worked out at 17.9 and the EC50 was found to be 20 µM.
As to `N=C(N)c1ccc(OCCCCCOc2ccc(C(=N)N)cc2)cc1` [Pentamidine, reference compound], in assay [6] (L. mexicana WT axenic amastigotes, read-out: WT EC50), the 50% effective concentration (EC50) was determined as 6.8 µM. Further, in assay [1], the “r22 28 weeks RI (resistance index, EC50 in r22/EC50 in WT)” value is on record as 0.75 and the EC50 stood at 5.1 µM.

The term EC50 denotes the midpoint of the concentration-response curve.
